In patent publication US5428061A, “Organic nitrates and method for their preparation” (Schwarz Pharma AG, priority 1988, dated 1995):
Where two headings read alike, the source gives them in different places. Blank lines part the entries; values can stand above or below the compound they belong to.

Experiments:
[1] = tested on: circulatory parameters of a dog that is awake; test: Action of organic nitrates on circulatory parameters of the awake dog after intravenous or oral administration; assay type: in vivo; settings: awake beagle dogs
Description: Administration of new organic nitrates to detect the nitrate action on the circulatory parameters of a dog that is awake.
The purpose of the test is to determine how the new organic nitrates act on various circulatory parameters of a dog that is awake after intravenous or oral administration. All experiments were carried out on trained beagle dogs; the circulatory parameters were measured with an arterial catheter tip manometer and a balloon catheter introduced into the V. jugularis. In order to describe the action on the arterial system, the systolic, mean and diastolic blood pressure (BP) and heart rate (HR) were measured. […] The low pressure system was measured through the central venous pressure (CVP) and the pulmonary arterial pressure (PAP). The control or reference product used was isosorbid-5-mononitrate (ISM-5).

[2] = tested on: isolated perfused rat heart; test: Coronary flow increase and tolerance in isolated perfused working rat heart; settings: for Activity Drop in flow / Maximum Coronary Increase: 100 μM, isolated perfused rat hearts, n = 7; for Maximum Coronary Increase: x ± SEM
Description: Determining the lack of tolerance to the action of new organic nitrates on increasing coronary flow in isolated perfused heart.
The purpose of the present investigation was to study the action and the development of tolerance to new organic nitrate compounds on isolated perfused rat heart. For this purpose, a rat heart was isolated and prepared as a "working heart".
In this experimental arrangement, the heart performs defined circulatory work from which a defined oxygen consumption and coronary flow result. The action of nitrate-like compounds can be measured in this model by the drug-induced coronary flow increase.
The resistance of the coronary vessels on an isolated working rat heart was chosen as the parameter for the detection of the action of the nitrate. A rat heart with a weight of about one gram is perfused through the left auricle with a plasma-like solution which contains nutrients and is saturated with oxygen. The left ventricle pumps the solution into the aorta against a defined pressure. Corresponding to the physiological conditions, a part of this solution flows through the coronary vessels for supplying the heart itself. At a defined work of the heart, this fraction, from which the coronary resistance can be calculated, is constant. The addition of a nitrate or other coronary dilating drug causes a drop in this coronary resistance. Therefore, if a constant concentration of an organic nitrate is introduced to the heart, then, after an initial decrease of the resistance, a partial loss of activity occurs within 20 minutes. On this model, the substances also show a coronary dilating effect, but this is not followed by a loss in activity. The maximum drop of the coronary resistance is still completely present after 60 minutes. The tested compounds were compared in an equimolar dosage with 10^-4 M nitroglycerin trinitrate. Continuous infusion of nitroglycerin causes a rapid coronary flow increase by 7.6±1.88 ml/min gww (x±SD). […] Upon further perfusion, the action of nitroglycerin is unchanged. In this experimental model, the new nitrates also show a coronary flow increase, but this is followed by only a very slight drop in the activity.

guinea pig heart = test: Coronary flow in working heart model (guinea pig heart); settings: for EC25: Cavia porcellus, read-out: concentration for a coronary flow increase of 25%
Description: Finally, the action of N-(3-nitratopivaloyl)-cysteine ethyl ester (Nitrato-Piv-Cy-Et) was characterized on guinea pig heart. […] A flow increase of 25% is achieved even with 380 μg of nitrato-Piv-Cy-Et per liter of perfusion medium, corresponding to 1.3 μmole per liter. The corresponding concentration for glycerol trinitrate (GTN) with 5 mg/liter is at least a factor of 12 times higher. Thus, in the case of Nitrato-Piv-Cy-Et we are dealing with an especially active compound with regard to the vessels.

isolated guanyl cyclase = target: T1, isolated guanyl cyclase (Homo sapiens, UniProt Q02153); test: Activation of isolated guanyl cyclase (cGMP formation); assay type: biochemical; settings: isolated enzyme; for EC50: read-out: concentration necessary for one-half of the maximum activity (ED50) of guanyl cyclase
T1 sequence (Q02153 1-619): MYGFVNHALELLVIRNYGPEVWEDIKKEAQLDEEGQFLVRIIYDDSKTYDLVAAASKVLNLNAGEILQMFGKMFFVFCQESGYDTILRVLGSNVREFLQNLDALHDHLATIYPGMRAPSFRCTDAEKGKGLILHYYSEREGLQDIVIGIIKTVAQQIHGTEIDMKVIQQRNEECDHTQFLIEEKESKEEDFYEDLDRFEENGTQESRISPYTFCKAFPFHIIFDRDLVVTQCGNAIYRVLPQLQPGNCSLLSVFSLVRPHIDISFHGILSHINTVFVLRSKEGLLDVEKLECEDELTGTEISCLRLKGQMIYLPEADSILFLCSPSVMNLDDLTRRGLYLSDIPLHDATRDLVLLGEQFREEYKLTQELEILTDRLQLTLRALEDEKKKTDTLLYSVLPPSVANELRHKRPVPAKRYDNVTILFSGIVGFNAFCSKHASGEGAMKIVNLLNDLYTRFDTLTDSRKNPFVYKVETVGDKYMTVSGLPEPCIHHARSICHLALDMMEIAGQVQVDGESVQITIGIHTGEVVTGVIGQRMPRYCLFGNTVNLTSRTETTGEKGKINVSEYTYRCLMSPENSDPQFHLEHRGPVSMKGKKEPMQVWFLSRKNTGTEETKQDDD
T1 sequence (Q02108 1-690 partner): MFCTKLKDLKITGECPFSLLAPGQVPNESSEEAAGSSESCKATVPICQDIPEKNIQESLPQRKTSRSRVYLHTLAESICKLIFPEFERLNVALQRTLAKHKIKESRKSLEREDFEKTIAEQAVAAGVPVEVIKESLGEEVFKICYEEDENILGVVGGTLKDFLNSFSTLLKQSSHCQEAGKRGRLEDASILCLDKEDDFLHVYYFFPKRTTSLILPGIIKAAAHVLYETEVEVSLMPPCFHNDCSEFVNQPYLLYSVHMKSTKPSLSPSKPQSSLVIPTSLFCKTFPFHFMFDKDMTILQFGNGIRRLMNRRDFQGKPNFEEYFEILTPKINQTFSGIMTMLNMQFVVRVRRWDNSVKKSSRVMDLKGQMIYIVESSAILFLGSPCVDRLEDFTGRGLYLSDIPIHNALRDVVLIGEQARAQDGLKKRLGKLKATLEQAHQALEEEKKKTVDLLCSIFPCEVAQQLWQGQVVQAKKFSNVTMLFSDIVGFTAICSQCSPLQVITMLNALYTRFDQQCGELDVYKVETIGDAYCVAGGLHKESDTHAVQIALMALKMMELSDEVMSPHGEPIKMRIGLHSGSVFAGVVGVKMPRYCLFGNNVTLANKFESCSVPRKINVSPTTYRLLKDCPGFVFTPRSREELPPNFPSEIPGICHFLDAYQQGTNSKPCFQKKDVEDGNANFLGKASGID
Description: The concentration necessary for one-half of the maximum activity (ED50) of guanyl cyclase is around 200 μmole/liter. The corresponding value for GTN (in the presence of 5 mmoles/liter of cysteine) is approximately 80 μmoles/liter.

[3] = oral and intravenous administration
[4] = continuous infusion, 10^-4 M, isolated working rat heart
[5] = working heart model, guinea pig

SMILES: O=[N+]([O-])O[C@@H]1CO[C@H]2[C@@H]1OC[C@@H]2O [ISM-5, isosorbid-5-mononitrate]
extensibility of the air chamber [1, 3]: increased significantly | low pressure system pressure [1, 3]: decreased | mean pressure [1, 3]: hardly effected | systolic blood pressure [1, 3]: slight decrease

EC50 (isolated guanyl cyclase): ~200 µM | bioavailability (comparison between intravenous and oral administration) [1]: good bioavailability
SMILES: CCOC(=O)[C@H](CS)NC(=O)C(C)(C)CO[N+](=O)[O-] [N-(3-nitratopivaloyl)-cysteine ethyl ester]
Activity Drop in flow [2]: 5.2% | Maximum Coronary Increase [2]: 6.6 ± 0.88 ml/min gww | EC25 (guinea pig heart; working heart model, guinea pig, converted from μg per liter): 1.3 µM | EC25 (guinea pig heart; working heart model, guinea pig, per liter of perfusion medium): 0.38 µg/mL | weakening of the coronary dilating effect (tolerance development) (guinea pig heart; one hour drenching perfusion, any dose, guinea pig heart): No weakening of the coronary dilating effect | effect on coronary flow (guinea pig heart; working heart model, guinea pig, very low dose range): concentration-dependent increase of the coronary flow | activation of guanyl cyclase (formation of cGMP per unit time) (isolated guanyl cyclase): concentration-dependent activation of the enzyme | activation of guanyl cyclase without cysteine (isolated guanyl cyclase; in vitro, absence of cysteine): activation occurs in vitro even in the absence of cysteine | course of action on circulatory parameters [1]: typical of a nitrate

bioavailability (comparison between intravenous and oral administration) [1]: good bioavailability
SMILES: CCOC(=O)[C@H](CCSC)NC(=O)C(C)(C)CO[N+](=O)[O-] [N-(3-nitratopivaloyl)-methionine ethyl ester]
Activity Drop in flow [2]: 7.0% | Maximum Coronary Increase [2]: 8.3 ± 0.92 ml/min gww

SMILES: O=[N+]([O-])OCC(CO[N+](=O)[O-])O[N+](=O)[O-] [nitroglycerine, glycerol trinitrate, reference compound]
Activity Drop in flow [2]: 56.0% | Maximum Coronary Increase [2]: 7.6 ± 0.71 ml/min gww | coronary flow increase (x±SD) [2, 4]: 7.6±1.88 ml/min gww | decrease of flow within 20 minutes [2, 4]: 55.9% | EC25 (guinea pig heart; [5]): 5 µg/mL | factor by which the concentration for 25% flow increase is higher than for Nitrato-Piv-Cy-Et (guinea pig heart; [5]): ≥ 12 times | EC50 (isolated guanyl cyclase; in the presence of 5 mmoles/liter of cysteine): ~80 µM
